The data set can be described thus: in vivo. The format is in vivo, Sprague–Dawley rats. The settings on record: for Detection in rat plasma after D7 administration: LC-MS/MS, sampling up to 24 h; for AUC / Cmax / MRT / Tmax / half-life / AUC(0-t) / CL/F / Vd/F: male, Sprague-Dawley, rat, in vivo; for Vd/F: read-out: Vz/F. As to the method:
Male Sprague–Dawley rats (∼250 g) purchased from Sino-British Sippr/BK Lab Animal, Ltd. (Shanghai, China) were housed in air-conditioned animal quarters with alternating 12 h light/dark cycles at a room temperature of 22°C±2°C and a relative humidity of 50%±10%. Commercial rat chow and water were given ad libitum. The animal studies were approved by the Review Committee of Animal Care and Use at Longhua Hospital. The rats were fasted overnight (∼12 h) and had free access to water throughout the experimental period. Five rats were given a single oral dose of D7 at 4 mL/kg, which was designed based on the clinical dosage for human. Blood samples (∼150 µL) were collected via a jugular vein catheter from non-restrained, non-sedated animals into heparinized tubes before and at 0.083, 0.25, 0.5, 1, 2, 3, 4, 6, 8, 10, and 24 h after administration. After centrifugation at 4000×g for 10 min at 4°C, duplicates of 25 µL of the plasma samples were obtained and were immediately stored at −80°C until analysis. After the experiments, the rats were sacrificed with ether anesthesia.
For protein precipitation, 75 µL of MeOH were added to 25 µL of plasma samples. After vortexing for 2 min and centrifugation for 5 min at 13000×g at 4°C, 80 µL aliquots of the supernatant liquid were transferred into autosampler vials for LC-MS/MS analysis.
The LC-MS/MS system consisted of an Agilent HPLC 1200 series system and a CTC autosampler coupled with an API 4000 triple-quadrupole mass spectrometer equipped with a TurboIonSpray ion source. The LC-MS/MS system was controlled using the Analyst 1.4.2 software, which also acquired and processed the data.
LC separation was performed on a 5 µm Agel Luna C18 (50 mm×2.1 mm, i.d.) at room temperature with a 2 µm filter used before the analytical column. The LC mobile phase was H2O containing 0.1% formic acid (A) and MeOH (B) at a flow rate of 0.30 mL/min. A gradient elution program was used as following: 0→2.5 min, B% 60→90; 2.5→2.6 min, B% 90→60; and 2.6→4 min, B% 60→60. The injection volume was 10 µL and the temperature of the autosampler was set at 4°C to keep the samples stable during the analysis.
The tuning solutions (10 µg/mL) of the individual analytes were prepared by diluting the corresponding primary stock solutions with 50% MeOH. The tuning solutions were delivered at 5.0 µL/min using a syringe pump and combined through a PEEK tee-connector with the mobile phase delivered at 0.3 mL/min with the LC pump. The instrumental parameters of the MS spectrometers in positive ion ESI mode were optimized to achieve maximum ionization of the analyte molecules and the generation of characteristic fragment ions. […] The scan time for each pair was set to 50 ms. The operating parameters of the mass spectrometer included compound-dependent and source-dependent considerations. The optimized source-dependent parameters consisted of the flow rates of curtain gas, gas 1, gas 2, collision gas (CAD), capillary temperature (TEM), and ion spray voltage. The compound-dependent parameters for the test compounds included the declustering potential (DP), entrance potential (EP), collision energy (CE), and collision cell exit potential (CXP).
Standard curves, intra-batch accuracy, and precision for the quantification of the 15 compounds in the rat plasma samples were constructed similarly. The accuracy was measured as the difference between the nominal value and the measured value, expressed as a percentage of the nominal value. Precision was expressed as the coefficient of variation (CV), i.e., the standard deviation divided by the mean multiplied by 100.
The plasma concentration–time data for D7 were analyzed with the WinNonlin 5.2.1 software (Pharsight, Mountain View, CA, USA) using a non-compartmental model. The peak plasma concentration (C max) and the corresponding time (T max) were directly obtained from the concentration data.

The mark [1] stands for this setting: SD rats, single oral D7 4 mL/kg.
Setting [2] is: SD rats, single oral D7 4 mL/kg, plasma.
Where [3] appears, read: SD rats, single oral D7 4 mL/kg, plasma, non-compartmental, read-out: T1/2 (converted).
The mark [4] stands for this setting: SD rats, single oral D7 4 mL/kg, plasma, read-out: AUC0–24 h.
Setting [5] is: SD rats, single oral D7 4 mL/kg, read-out: CL/F (converted).

Read-outs that look alike come from different tables or passages of the source.

From PMC3585395, “Material Basis of Chinese Herbal Formulas Explored by Combining Pharmacokinetics with Network Pharmacology” (PLoS ONE, 2013) come the findings set out here.

In general, AUC refers to concentration integrated over time. Read a high AUC as more exposure. Broadly, the Cmax is the highest concentration seen after dosing. By MRT is commonly meant the average time that molecules of a dose stay in the body. By Tmax is commonly meant the time from dosing to the highest level.

In the case of `CCN1CC2(COC)C(O)CC(OC)C34C5CC6(O)C(OC)C(O)C(O)(C5C6OC(=O)c5ccccc5)C(C(OC)C23)C14` (stereo not shown) [Benzoylaconitine, benzoylaconine], under setting [1], the “Detection in rat plasma after D7 administration” value (“Detection in rat plasma” for short) is listed as “not detected”.

As to `COc1c2ccoc2cc2oc(=O)ccc12` [Bergapten, bergapten], under setting [1], the “Detection in rat plasma” value was “measureable” and the Vd/F amounted to 2.93 ± 1.57 L/kg. Also, under setting [2], the AUMCall is on record as 1270±958 h·h·ng/mL, the AUMClast is 924±716 h·h·ng/mL, the AUC was 158 ± 77.9 ng·h/mL and the peak concentration (Cmax) is 20.5 ± 7.22 ng/mL. Further, under setting [2], the MRT came out at 5.65 ± 2.16 h and the Tmax came out at 1 h. For the same compound, under setting [3], the half-life was 4.14 ± 0.7 h. Also, the AUC(0-t) under setting [4] stood at 143 ± 73.2 ng·h/mL. Also, under setting [5], the CL/F is 8.07 mL/min/kg.

For the compound `O=c1ccc2ccc3occc3c2o1` [Isopsoralen, isopsoralen], under setting [1], the “Detection in rat plasma” value is given as “measureable” and the Vd/F is 0.308 ± 0.181 L/kg. Moreover, under setting [2], the AUMCall was found to be 168803±119110 h·h·ng/mL, the AUMClast was determined as 150025±99963 h·h·ng/mL, the AUC came to 21000 ± 12100 ng·h/mL and the highest level (Cmax) was 2240 ± 824 ng/mL. Under setting [2], the MRT is 7.13 ± 0.66 h and the Tmax was found to be 6 h. Further, the half-life under setting [3] is 3.53 ± 1.03 h. Moreover, the AUC(0-t) under setting [4] came out at 20400 ± 11500 ng·h/mL. For the same compound, the CL/F under setting [5] is 1.1 mL/min/kg.

Consider `O=c1ccc2cc3ccoc3cc2o1` [Psoralen, psoralen], for which, under setting [2], the AUMCall came to 74305±51503 h·h·ng/mL, the AUMClast is listed as 69918±49475 h·h·ng/mL, the AUC worked out at 10200 ± 6000 ng·h/mL and the Cmax worked out at 929 ± 431 ng/mL. Further, under setting [2], the MRT was 6.71 ± 0.79 h and the Tmax worked out at 6 h. Also, the half-life under setting [3] was 3.18 ± 0.24 h. Also, the AUC(0-t) under setting [4] was 9980 ± 5960 ng·h/mL. Besides, the CL/F under setting [5] was 1.39 mL/min/kg. For the same compound, the Vd/F under setting [1] was 0.384 ± 0.227 L/kg.

With `CC(C)=CCc1cc2c(cc1O)oc(=O)c1c3ccc(O)cc3oc21` [Psoralidin, psoralidin], under setting [1], the “Detection in rat plasma” value is “measureable” and the Vd/F came to 5.87 ± 0.395 L/kg. Under setting [2], this compound displayed an AUMCall of 2240±462 h·h·ng/mL, an AUMClast of 329±44 h·h·ng/mL, an AUC of 64.5 ± 8.46 ng·h/mL and a maximum concentration (Cmax) of 2.57 ± 0.53 ng/mL. Further, under setting [2], the MRT turned out to be 10.3 ± 0.39 h and the Tmax was 0.5 h. The compound further had a T1/2 (SD rats, single oral D7 4 mL/kg, plasma, non-compartmental) of 23.7 ± 1.7 h. The half-life (po, SD rats, single oral D7 4 mL/kg, plasma, non-compartmental, read-out: T1/2 (converted)) is approximately 24 h. For the same compound, the AUC(0-t) (SD rats, single oral D7 4 mL/kg, plasma, read-out: AUClast) came out at 31.9 ± 3.32 ng·h/mL. For the same compound, the CL/F under setting [5] was 2.88 mL/min/kg.

For the compound `COc1c2occc2cc2ccc(=O)oc12` [Xanthotoxin, xanthotoxin], under setting [2], the AUMCall was 1445±719 h·h·ng/mL, the AUMClast stood at 667±270 h·h·ng/mL, the AUC worked out at 209 ± 89.5 ng·h/mL and the Cmax stood at 31.7 ± 9.55 ng/mL. In addition, under setting [2], the MRT is 4.06 ± 0.41 h and the Tmax was 1 h. The same compound gave a CL/F (po) of 9.6 mL/min/kg. Also, the half-life (po, T1/2) is 4.56 ± 0.71 h. In addition, the AUC(0-t) under setting [4] is 162 ± 64.7 ng·h/mL. Moreover, under setting [1], the Vd/F turned out to be 3.69 ± 1.52 L/kg.

As to `CCN1C[C@]2(COC)[C@H](O)C[C@H](OC)[C@@]34[C@@H]5C[C@@]6(O)[C@H](OC(=O)c7ccccc7)[C@@H]5[C@@](OC(C)=O)([C@@H]([C@H](OC)[C@H]23)[C@@H]14)[C@@H](O)[C@@H]6OC` [aconitine], the “Detection in rat plasma” value under setting [1] is “not detected”.

Regarding `COC[C@@]12CC[C@H](OC)[C@]34C(C([C@H](OC)[C@H]13)[C@]1(OC(C)=O)[C@H]3[C@@H](OC(=O)c5ccccc5)[C@](O)(C[C@H]34)[C@@H](OC)[C@@H]1O)N(C)C2` [hypaconitine], the “Detection in rat plasma” value under setting [1] is recorded as “not detected”.

For the compound `COCC12CN(C)C3C4C(OC)C1C3(C(OC)CC2O)C1CC2(O)C(OC)C(O)C4(OC(C)=O)C1C2OC(=O)c1ccccc1` (stereo not shown) [mesaconitine], the “Detection in rat plasma” value under setting [1] is reported as “not detected”.
